Where two headings read alike, the source gives them in different places.
Experiments:
BRD7 = molecular target: T1, BRD7 (Homo sapiens, UniProt Q9NPI1); assay: BRD7 degradation, HiBiT-BRD7 KI HEK293 (LgBiT) cells, NanoGlo Lytic Endpoint assay (Assay Protocol 1); format: cell-based; conditions: Table 5, assay protocol 1; for Dmax: HEK293
T1 construct: HiBiT-BRD7 KI HEK293 (LgBiT) Cells (Promega CS3023410); host or cells: HEK293 (LgBiT), HiBiT knock-in at the BRD7 locus
T1 sequence (Q9NPI1 1-651): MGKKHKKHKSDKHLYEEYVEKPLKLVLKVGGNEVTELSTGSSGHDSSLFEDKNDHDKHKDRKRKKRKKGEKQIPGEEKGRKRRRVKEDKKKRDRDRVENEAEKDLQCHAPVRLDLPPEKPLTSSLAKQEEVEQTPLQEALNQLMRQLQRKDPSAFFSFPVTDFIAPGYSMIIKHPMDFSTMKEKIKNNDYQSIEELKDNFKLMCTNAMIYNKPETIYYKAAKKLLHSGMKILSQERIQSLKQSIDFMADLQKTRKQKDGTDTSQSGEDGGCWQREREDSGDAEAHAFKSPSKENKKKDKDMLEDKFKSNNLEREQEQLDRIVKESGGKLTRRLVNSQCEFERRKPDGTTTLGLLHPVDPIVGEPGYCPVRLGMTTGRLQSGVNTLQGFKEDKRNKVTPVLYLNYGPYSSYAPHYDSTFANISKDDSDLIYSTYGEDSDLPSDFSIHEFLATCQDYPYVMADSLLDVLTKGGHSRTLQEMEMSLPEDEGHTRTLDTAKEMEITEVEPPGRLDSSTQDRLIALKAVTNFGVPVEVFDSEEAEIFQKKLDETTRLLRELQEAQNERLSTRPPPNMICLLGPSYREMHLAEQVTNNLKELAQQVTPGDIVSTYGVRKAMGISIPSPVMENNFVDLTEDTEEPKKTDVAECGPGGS
Protocol: HiBiT-BRD9 KI HEK293 (LgBiT) Cells (Promega CS3023412) were seeded at 8000 cells per well (38 μL) in sterile white bottom 384 well plates (Invitrogen 164610 or Greiner 781080) and incubated overnight at 37° C. with 5% CO2. The next day, compounds were prepared at 1000× final concentration in DMSO and diluted 1:100 in media (DMEM PAN Biotech P04-03550+10% FBS ATCC 302025). […] The lytic buffer was equilibrated to room temperature for 10-15 min before lytic reagent was prepared by adding substrate (1:50) and LgBit protein (1:100) in lytic buffer. 40 μL lytic reagent mix was added to each well of the cel plate and plates were centrifuged briefly at ˜50g. Plates were incubated with shaking (350 RPM) for 12-24 min before reading using the LUM plus module of a BMG Pherastar FSX. Data was analysed using Dotmatics software and % BRD9 remaining was calculated by normalisation to average data from high and low control wells (DMSO treated cels and no cells respectively).
BRD7 degradation was determined in line with the procedure as outlined above for BRD9, with the exception that HiBiT-BRD7 KI HEK293 (LgBiT) Cells (Promega CS3023410) were seeded at 8000 cells per well (CPW) (36 uL) in sterile white bottom 384 well plates (Invitrogen 164610 or Greiner 781080) and incubated overnight at 37° C. with 5% CO2.

BRD9 = molecular target: T2, BRD9 (Homo sapiens, UniProt Q9H8M2); assay: Degradation of BRD9 (IF), immunofluorescence in MV4-11 cells, 24 hours (Assay Protocol 2); format: cell-based; set-up: A suspension of MV4-11 cells (ATCC CRL-9591) was prepared; host or cells: MV4-11
T2 sequence (Q9H8M2 1-597): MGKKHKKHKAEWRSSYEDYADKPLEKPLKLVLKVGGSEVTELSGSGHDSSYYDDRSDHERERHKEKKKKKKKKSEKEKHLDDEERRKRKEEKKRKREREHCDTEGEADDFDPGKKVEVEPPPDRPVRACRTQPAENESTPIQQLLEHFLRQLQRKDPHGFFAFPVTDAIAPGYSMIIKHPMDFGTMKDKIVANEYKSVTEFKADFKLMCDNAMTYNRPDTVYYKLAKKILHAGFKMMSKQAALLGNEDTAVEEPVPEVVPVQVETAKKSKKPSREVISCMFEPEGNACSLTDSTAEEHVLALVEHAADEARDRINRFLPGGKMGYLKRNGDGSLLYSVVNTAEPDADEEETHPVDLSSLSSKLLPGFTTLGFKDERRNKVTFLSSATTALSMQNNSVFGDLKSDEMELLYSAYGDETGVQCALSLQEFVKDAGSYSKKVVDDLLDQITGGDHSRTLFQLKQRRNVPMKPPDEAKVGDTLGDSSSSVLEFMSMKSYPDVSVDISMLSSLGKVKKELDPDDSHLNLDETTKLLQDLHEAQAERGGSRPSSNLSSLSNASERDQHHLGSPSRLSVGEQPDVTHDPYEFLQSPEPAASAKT
Summary of the method: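 % BRD9 remaining, scaled between DMSO (high) and 100 nM CFT-8634 (low) control wells, derives from mean Alexa 647 contrast in central nuclei by high-content imaging. MV4-11 cells had 24 h compound exposure at 37° C. before PFA fixation, Triton permeabilisation and anti-BRD9 E4Q3F immunostaining.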

[1] = MV4-11, Table 4, BRD9 degradation, determined according to Assay Protocol 2, read-out: Dmax^2
[2] = Table 4, BRD9 degradation, determined according to Assay Protocol 2, read-out: DC50^2

Dmax (BRD7) | DC50 (BRD7) | Dmax (BRD9; [1]) | DC50 (BRD9; [2]) | Dmax (BRD9; MV4-11, Table 5, cells marked *: measured in accordance with Assay Protocol 2, read-out: BRD9 Dmax (%)) | DC50 (BRD9; Table 5, cells marked *: measured in accordance with Assay Protocol 2, read-out: BRD9 DC50) | Compound
< 25% | > 1000 nM | 50 to 70% | > 200 nM | – | – | COc1cc(-c2cn(C)c(=O)c(C)c2C)cc(OC)c1CN(C)C1CCN(C(=O)/C(C#N)=C/C(C)(C)C)CC1 [BRD9d, (E/Z)-2-(4-((2,6-dimethoxy-4-(1,4,5-trimethyl-6-oxo-1,6-dihydropyridin-3-yl)benzyl)(methyl)amino)piperidine-1-carbonyl)-4,4-dimethylpent-2-enenitrile]
< 25% | > 1000 nM | 30 to 50% | – | 25 to 40% | > 1000 nM | COc1cc(-c2cn(C)c(=O)c(C)c2C)cc(OC)c1CN1CCN(C(=O)/C(C#N)=C/C(C)(C)C)C2(CC2)C1 [BRD9e, (E/Z)-2-(7-(2,6-dimethoxy-4-(1,4,5-trimethyl-6-oxo-1,6-dihydropyridin-3-yl)benzyl)-4,7-diazaspiro[2,5]octane-4-carbonyl)-4,4-dimethylpent-2-enenitrile]
25 to 40% | > 1000 nM | > 70% | < 25 nM | – | – | COc1cc(-c2cn(C)c(=O)c(C)c2C)cc(OC)c1CN1CCN(C(=O)/C(C#N)=C/c2cccc(Br)n2)CC1 [BRD9h, (E/Z)-3-(6-bromopyridin-2-yl)-2-(4-(2,6-dimethoxy-4-(1,4,5-trimethyl-6-oxo-1,6-dihydropyridin-3-yl)benzyl)piperazine-1-carbonyl)acrylonitrile]
